Test results taken from US20220380937A1, “IDENTIFICATION OF SPLICING-DERIVED ANTIGENS FOR TREATING CANCER” (THE REGENTS OF THE UNIVERSITY OF CALIFORNIA, priority 2019, published 2022).

Tested on: CD3+CD8+ T cells
Assay: MHC class I dextramer-based T-cell recognition assay (flow cytometry of PBMCs/TILs with pMHC complexes)
Parameters: species or system human
Conditions: for tested healthy donors whose T cells recognized the epitope: three HLA-matched healthy donors tested, PBMCs
Procedure: Assays to determine immunogenicity and/or TCR binding can be performed. One such as is the dextramer flow cytometery assay. Generally, custom-made HLA-matched MHC Class I dextramer:peptide (pMHC) complexes are developed or purchased (Immudex, Copenhagen, Denmark). T cells from peripheral blood mononuclear cells (PBMCs) or tumor-infiltrating lymphocytes (TILs) are incubated the pMHC complexes and stained, which are then run through a flow cytometer to determine if the peptide is capable of binding a TCR of a T cell.
Finally, the inventors sought to validate the immunogenicity and T-cell recognition of IRIS-identified candidate TCR targets using an MHC class I dextramer-based assay (12,24). The inventors focused on predicted AS-derived tumor epitopes with strong putative HLA-binding affinity to common HLA types found in at least five of the 22 patients. The inventors selected seven AS-derived tumor-associated epitopes (five HLA-A02:01 and two HLA-A03:01) for dextramer-based T-cell recognition testing (Table 4). […] The inventors obtained customized HLA-matched, fluorescently labeled MEW class I dextramer:peptide (pMHC) complexes for each candidate epitope. The inventors conducted flow cytometry to detect CD8^+ T-cell binding with the pMHC complexes using available peripheral blood mononuclear cells (PBMCs) and/or ex vivo-expanded tumor-infiltrating lymphocytes (TILs). Based on the binding of each AS-derived tumor epitope to a patient's CD3^+CD8^+ T cells, the inventors classified epitope reactivity as ‘positive’ (binding>0.1% of cells), ‘marginal’ (binding 0.01-0.1% of cells), or ‘negative’ (binding<0.01% of cells). […] The inventors analyzed samples from two HLA-A02:01 and four HLA-A03:01 patients, as well as samples from three HLA-A02:01 and three HLA-A03:01 healthy donors (Table 5, Supplementary Data).
Dextramer flow-cytometric analysis of PBMCs and TILs. For each AS-derived peptide selected for validation, custom-made HLA-matched MHC Class I dextramer:peptide (pMHC) complexes were purchased from Immudex (Copenhagen, Denmark). Immudex also provided pMHC complexes for common cytomegalovirus (CMV) epitopes (cat. nos. WB2132 and WC2197) and for a nonhuman epitope (NI3233) as a negative control. Each pMHC complex was purchased with two separate tags for APC or PE fluorescence labeling, to increase specificity to targeted T cells with dual labeling.
To facilitate proper gating of CD8^+ T cells from PBMC and TIL populations, the following panel of antibodies (from BioLegend) was set up: CD3 BV605 (cat. no. 300460), CD8 FITC (cat. no. 344704), CD4 BV421 (cat. no. 317434), CD19 BV421 (cat. no. 302234), CD56 BV421 (cat. no. 362552), and CD14 BV421 (cat. no. 301828). For single-color compensation controls, OneComp eBeads were used (Thermo Fisher Scientific, cat. no. 01-1111-41).
For each set of pMHC complexes, at least 3×10^6 cells were stained according to manufacturer's guidelines. Briefly, cells were thawed in a 37° C. water bath and washed with RPMI and D-PBS (Fisher Scientific, cat. no. MT21031CV) before staining for cell viability with the Zombie Violet Viability Kit (BioLegend, cat. no. 423113). Next, the appropriate amount of each pMHC complex in a staining buffer of D-PBS with 5% fetal bovine serum (Fisher Scientific, cat. no. MT35016CV) was added to each sample. After 10 min, the aforementioned antibody cocktail was added. After a 30-min incubation period, cells were washed twice in the same staining buffer. All samples were tested in a BD LSRII flow cytometer, and data were analyzed with FlowJo (Treestar). For gating, the lymphocyte population was first selected using forward and side scatter, and then the BV421-negative population was gated out (i.e. excluding dead cells and the CD14, CD19, CD56, and CD4 populations) before selecting the CD3^+CD8^+population. […]

[1] = patient LB2867, ex vivo-expanded TILs

Sequence | reactive cells, % of CD3+CD8+ T cells (the one recognizing healthy donor of three tested) [%] | tested healthy donors whose T cells recognized the epitope | recognition by patient T cells (GBM patients, PBMCs and/or ex vivo-expanded TILs) | tested patients whose T cells recognized the epitope (four HLA-A03:01 GBM patients tested, PBMCs and/or TILs, at least marginal reactivity = recognized) | epitope-reactive T cells, % of T cells in PBMCs (patient LB2867, PBMCs) [%] | epitope reactivity (recognition) in expanded TIL population [1] | epitope-reactive T cells, % of T cells in TILs [1] [%]
YAIVWVNGV (listed as Homo sapiens) | 0.013 | only one healthy donor | – | – | – | – | –
KIGRLVTRK (listed as Homo sapiens) | – | one of the three | recognized | all four tested patients | 0.03 | positive (‘positive’ (binding>0.1% of cells)) | 1.69
